For five cell lines, relative viability results are on record in the supplement of paper PMC10307832.

Assay in all cases: relative viability (nuclei count vs DMSO), 5 days (fraction); higher = more cells survive
Compound in the assay “RAF265 + Trametinib”: Cn1c(Nc2ccc(C(F)(F)F)cc2)nc2cc(Oc3ccnc(-c4ncc(C(F)(F)F)[nH]4)c3)ccc21 [RAF265] + CC(=O)Nc1cccc(-n2c(=O)n(C3CC3)c(=O)c3c(Nc4ccc(I)cc4F)n(C)c(=O)c(C)c32)c1 [Trametinib] (partner 0.02 µM)
Summed up: (§1)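 Nuclei were stained with Hoechst during a one-step fixation (final 0.05% Triton X-100, 1% formaldehyde, 1 ug/ml Hoechst) carried out 5 days after dosing, then counted on 4× images. The cells, lung cancer lines in 1536-well plates, had been dosed by pin tool the day after seeding with one drug alone or a fixed anchor-drug dose plus five library-drug doses (not always all listed) in √10 steps. Relative viability is the nuclei count in treated wells divided by that in vehicle wells, and each value is the median of duplicate plates.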

Compound in the assay “IPA-3 + AZD7762”: C1=CC=C2C(=C1)C=CC(=C2SSC3=C(C=CC4=CC=CC=C43)O)O [IPA-3] + NC(=O)Nc1cc(-c2cccc(F)c2)sc1C(=O)N[C@H]1CCCNC1 [AZD7762] (partner 0.2 µM)
Summed up: as §1

Compound in the assay “IPA-3 + Decitabine”: C1=CC=C2C(=C1)C=CC(=C2SSC3=C(C=CC4=CC=CC=C43)O)O [IPA-3] + Nc1ncn([C@H]2C[C@H](O)[C@@H](CO)O2)c(=O)n1 [Decitabine] (partner 2 µM)
An outline of the steps: as §1

Compound in the assay “IPA-3 + Pemetrexed”: C1=CC=C2C(=C1)C=CC(=C2SSC3=C(C=CC4=CC=CC=C43)O)O [IPA-3] + Nc1nc2[nH]cc(CCc3ccc(C(=O)N[C@@H](CCC(=O)O)C(=O)O)cc3)c2c(=O)[nH]1 [Pemetrexed] (partner 0.2 µM)
An outline of the steps:
as §1

With NCI-H3122, the relative viability with RAF265 + Trametinib (first compound 0.01 µM) is 0.26; with RAF265 + Trametinib (first compound 0.03162 µM), 0.203; with RAF265 + Trametinib (first compound 0.1 µM) it was 0.21; in the assay with RAF265 + Trametinib (first compound 0.3162 µM) it was 0.208; with RAF265 + Trametinib (first compound 1 µM), 0.173; in the assay with IPA-3 + AZD7762 (first compound 0.2 µM) it was 1.02. The relative viability was determined as 1.01 in the assay with IPA-3 + AZD7762 (first compound 0.6325 µM); 0.995 with IPA-3 + AZD7762 (first compound 2 µM); 1.11 with IPA-3 + AZD7762 (first compound 6.325 µM); 0.999 with IPA-3 + AZD7762 (first compound 20 µM); 0.517 in the assay with IPA-3 + Decitabine (first compound 0.2 µM); 0.467 with IPA-3 + Decitabine (first compound 0.6325 µM). Besides, the relative viability stood at 0.362 with IPA-3 + Decitabine (first compound 2 µM); 0.459 with IPA-3 + Decitabine (first compound 6.325 µM); 0.474 in the assay with IPA-3 + Decitabine (first compound 20 µM); 0.189 with IPA-3 + Pemetrexed (first compound 0.2 µM); 0.197 with IPA-3 + Pemetrexed (first compound 0.6325 µM); 0.192 in the assay with IPA-3 + Pemetrexed (first compound 2 µM). Also, the relative viability came out at 0.207 with IPA-3 + Pemetrexed (first compound 6.325 µM) and 0.211 with IPA-3 + Pemetrexed (first compound 20 µM).

Consider PC-3 [JPC-3], for which the relative viability stood at 0.708 with RAF265 + Trametinib (first compound 0.01 µM); 0.708 with RAF265 + Trametinib (first compound 0.03162 µM); 0.761 with RAF265 + Trametinib (first compound 0.1 µM); 0.469 with RAF265 + Trametinib (first compound 0.3162 µM); 0.466 with RAF265 + Trametinib (first compound 1 µM); 0.926 with IPA-3 + AZD7762 (first compound 0.2 µM). Further, the relative viability came out at 1.34 with IPA-3 + AZD7762 (first compound 0.6325 µM); 0.916 with IPA-3 + AZD7762 (first compound 2 µM); 0.741 with IPA-3 + AZD7762 (first compound 6.325 µM); 0.807 with IPA-3 + AZD7762 (first compound 20 µM); 0.849 with IPA-3 + Decitabine (first compound 0.2 µM); 0.837 with IPA-3 + Decitabine (first compound 0.6325 µM). Further, the relative viability in the assay with IPA-3 + Decitabine (first compound 2 µM) was found to be 0.813; with IPA-3 + Decitabine (first compound 6.325 µM) it was 0.779; with IPA-3 + Decitabine (first compound 20 µM), 0.855; in the assay with IPA-3 + Pemetrexed (first compound 0.2 µM), 1.12; in the assay with IPA-3 + Pemetrexed (first compound 0.6325 µM), 1.23; with IPA-3 + Pemetrexed (first compound 2 µM) it was 1.18. Moreover, the relative viability in the assay with IPA-3 + Pemetrexed (first compound 6.325 µM) and in the assay with IPA-3 + Pemetrexed (first compound 20 µM) was 1.03 in each case.

For PC-14, the relative viability with RAF265 + Trametinib (first compound 0.01 µM) is 0.814; with RAF265 + Trametinib (first compound 0.03162 µM), 0.711; with RAF265 + Trametinib (first compound 0.1 µM), 0.716; in the assay with RAF265 + Trametinib (first compound 1 µM) it was 0.447; with IPA-3 + AZD7762 (first compound 0.2 µM) it was 0.402; with IPA-3 + AZD7762 (first compound 0.6325 µM), 0.362. Moreover, the relative viability came to 0.431 in the assay with IPA-3 + AZD7762 (first compound 2 µM); 0.328 in the assay with IPA-3 + AZD7762 (first compound 6.325 µM); 0.407 in the assay with IPA-3 + AZD7762 (first compound 20 µM); 0.29 in the assay with IPA-3 + Decitabine (first compound 0.2 µM); 0.152 in the assay with IPA-3 + Decitabine (first compound 0.6325 µM); 0.226 with IPA-3 + Decitabine (first compound 2 µM). Besides, the relative viability with IPA-3 + Decitabine (first compound 6.325 µM) turned out to be 0.187; with IPA-3 + Decitabine (first compound 20 µM), 0.144; with IPA-3 + Pemetrexed (first compound 0.2 µM) it was 0.123; in the assay with IPA-3 + Pemetrexed (first compound 0.6325 µM), 0.132; with IPA-3 + Pemetrexed (first compound 2 µM), 0.135; with IPA-3 + Pemetrexed (first compound 6.325 µM), 0.124. In addition, in the assay with IPA-3 + Pemetrexed (first compound 20 µM), the relative viability was 0.132.

Turning to RERF-LC-KJ, the relative viability with RAF265 + Trametinib (first compound 0.01 µM) was determined as 0.877; in the assay with RAF265 + Trametinib (first compound 0.03162 µM), 0.764; in the assay with RAF265 + Trametinib (first compound 0.1 µM), 0.867; with RAF265 + Trametinib (first compound 0.3162 µM), 0.638; in the assay with RAF265 + Trametinib (first compound 1 µM) it was 0.546; with IPA-3 + AZD7762 (first compound 0.2 µM), 1.08. The relative viability in the assay with IPA-3 + AZD7762 (first compound 0.6325 µM) worked out at 0.955; with IPA-3 + AZD7762 (first compound 2 µM), 1.01; with IPA-3 + AZD7762 (first compound 6.325 µM), 0.921; with IPA-3 + AZD7762 (first compound 20 µM), 1.15; with IPA-3 + Decitabine (first compound 0.2 µM), 0.896; with IPA-3 + Decitabine (first compound 0.6325 µM), 0.639. The relative viability in the assay with IPA-3 + Decitabine (first compound 2 µM) stood at 0.701; with IPA-3 + Decitabine (first compound 6.325 µM) it was 0.704; with IPA-3 + Decitabine (first compound 20 µM), 0.689; with IPA-3 + Pemetrexed (first compound 0.2 µM), 0.487; with IPA-3 + Pemetrexed (first compound 0.6325 µM), 0.46; in the assay with IPA-3 + Pemetrexed (first compound 2 µM), 0.482. In addition, the relative viability with IPA-3 + Pemetrexed (first compound 6.325 µM) amounted to 0.489; with IPA-3 + Pemetrexed (first compound 20 µM) it was 0.566.

For the cell line SW 900, the relative viability with RAF265 + Trametinib (first compound 0.01 µM) came out at 0.83; with RAF265 + Trametinib (first compound 0.03162 µM), 0.994; with RAF265 + Trametinib (first compound 0.1 µM), 0.836; in the assay with RAF265 + Trametinib (first compound 0.3162 µM), 0.679; with RAF265 + Trametinib (first compound 1 µM), 0.52; in the assay with IPA-3 + AZD7762 (first compound 0.2 µM), 0.823. Moreover, the relative viability came out at 0.64 with IPA-3 + AZD7762 (first compound 0.6325 µM); 0.631 with IPA-3 + AZD7762 (first compound 2 µM); 0.605 in the assay with IPA-3 + AZD7762 (first compound 6.325 µM); 0.786 with IPA-3 + AZD7762 (first compound 20 µM); 0.501 with IPA-3 + Decitabine (first compound 0.2 µM); 0.453 with IPA-3 + Decitabine (first compound 0.6325 µM). Also, the relative viability amounted to 0.49 in the assay with IPA-3 + Decitabine (first compound 2 µM); 0.415 with IPA-3 + Decitabine (first compound 6.325 µM); 0.476 in the assay with IPA-3 + Decitabine (first compound 20 µM); 0.544 with IPA-3 + Pemetrexed (first compound 0.2 µM); 0.456 with IPA-3 + Pemetrexed (first compound 0.6325 µM); 0.472 with IPA-3 + Pemetrexed (first compound 2 µM). For the same cell line, the relative viability in the assay with IPA-3 + Pemetrexed (first compound 6.325 µM) is 0.441; with IPA-3 + Pemetrexed (first compound 20 µM), 0.527.
